In assay [1] the target is T1, full-length human KDAC6 (Homo sapiens, UniProt Q9UBN7).
T1 construct: A pFastbac1 construct containing full-length human KDAC6 (UniProtKB Q9UBN7) with a C-terminal His6 tag; His6 (C); made in house; host or cells: ExpiSf9 insect cells (baculovirus)
T1 sequence (Q9UBN7 1-1215): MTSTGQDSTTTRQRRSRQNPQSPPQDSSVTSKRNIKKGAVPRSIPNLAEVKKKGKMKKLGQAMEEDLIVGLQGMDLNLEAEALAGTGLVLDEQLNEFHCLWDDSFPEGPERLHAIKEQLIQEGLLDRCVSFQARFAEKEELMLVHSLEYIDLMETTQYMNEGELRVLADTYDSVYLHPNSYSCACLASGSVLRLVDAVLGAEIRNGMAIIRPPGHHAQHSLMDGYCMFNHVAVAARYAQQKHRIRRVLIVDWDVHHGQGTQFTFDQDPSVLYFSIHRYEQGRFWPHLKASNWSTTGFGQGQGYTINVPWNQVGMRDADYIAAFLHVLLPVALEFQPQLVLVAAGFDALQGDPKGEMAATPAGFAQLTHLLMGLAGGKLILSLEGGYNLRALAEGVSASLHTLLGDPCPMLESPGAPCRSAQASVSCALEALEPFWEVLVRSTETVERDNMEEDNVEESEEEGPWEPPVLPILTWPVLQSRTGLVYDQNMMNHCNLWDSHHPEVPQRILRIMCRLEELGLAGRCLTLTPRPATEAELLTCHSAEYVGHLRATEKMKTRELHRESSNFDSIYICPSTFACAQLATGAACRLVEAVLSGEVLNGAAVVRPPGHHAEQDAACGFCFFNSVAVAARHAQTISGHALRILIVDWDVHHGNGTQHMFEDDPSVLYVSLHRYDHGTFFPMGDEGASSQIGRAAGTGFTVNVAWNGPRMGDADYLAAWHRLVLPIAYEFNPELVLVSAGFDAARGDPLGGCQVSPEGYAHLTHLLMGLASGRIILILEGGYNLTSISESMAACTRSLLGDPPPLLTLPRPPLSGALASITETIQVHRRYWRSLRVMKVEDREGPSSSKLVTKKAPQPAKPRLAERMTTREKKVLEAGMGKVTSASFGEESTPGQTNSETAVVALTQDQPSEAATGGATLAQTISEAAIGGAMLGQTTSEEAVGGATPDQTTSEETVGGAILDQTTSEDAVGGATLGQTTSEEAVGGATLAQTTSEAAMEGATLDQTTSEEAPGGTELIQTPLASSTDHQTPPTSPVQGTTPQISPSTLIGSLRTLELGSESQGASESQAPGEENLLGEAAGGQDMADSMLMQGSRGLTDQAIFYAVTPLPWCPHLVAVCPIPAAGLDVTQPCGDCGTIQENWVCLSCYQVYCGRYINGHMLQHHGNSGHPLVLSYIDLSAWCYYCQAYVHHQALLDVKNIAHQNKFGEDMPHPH
Put plainly: Activity of KDAC6 with putative substrate peptides (verification of substrate preferences). It counts as biochemical. To be noted: endpoint, 100 μM peptide, buffer also containing 100 mM KCl; for specific activity, KDAC6 with putative substrates: 50–200 nM KDAC, 25 °C, pH 7.6, 15–60 min, average ± SD, SD. The protocol: (§1) Peptide substrates were synthesized to >95% purity (GenScript) with N-terminal acetylation and C-terminal amidation. For endpoint experiments, 100 μM peptide substrates were reacted with 50–200 nM KDAC at 25 °C at pH 7.6 for 15–60 min. Deacetylation was measured using a fluorescamine-based assay that was previously described in detail.[18] Reported raw activity for each enzyme–substrate pair is the average and standard deviation for n ≥ 4 unless otherwise noted. Normalized activity was calculated by defining the activity of each KDAC with the FRK^acWR peptide equal to 1. Statistical significance was determined by calculating p values using two-tailed t-tests, assuming similar variance. The significance threshold was set at p ≤ 0.01 with the Bonferroni correction for multiple testing. Kinetic parameters were determined for a subset of enzyme–substrate pairs. In these experiments, 50–200 nM KDAC was reacted with ≥5 substrate concentrations from 10 to 2500 nM and ≥3 timepoints at intervals of 3–20 min were collected for each substrate concentration. Deacetylation was measured using the same method as the endpoint experiments, and KM and kcat were calculated from the observed activity of each reaction as previously described.[18] Activity assays with peptides for verification of substrate preferences were performed as for endpoint experiments, except in a buffer also containing 100 mM KCl. Statistical analysis of the correlation of the presence of particular substrate residues with activity was performed using Fisher’s exact test with a significance threshold of p ≤ 0.05.
In contrast with the peptides tested thus far, which were all derivatives of a single substrate, these panels consisted of peptides derived from human proteins in which the lysine residue is known to be acetylated in cells.[3],[5],[42],[50]−[72] For each enzyme, peptides were included either because they contained an acetyllysine that has been identified as a putative substrate of the KDAC from published cellular studies and/or because the peptide contained a residue that appeared to drive KDAC activity in our analysis. For KDAC6, we observed that of the set of peptides that were tested, six contained tryptophan or tyrosine directly after the acetyllysine. Remarkably, all of these peptides appeared in the top seven most reactive substrates tested (Table 2). Assuming that phenylalanine would behave similarly to tryptophan and tyrosine, we determined that there was a statistically significant correlation between whether or not a peptide was deacetylated by KDAC6 and the presence of tyrosine, tryptophan, or phenylalanine in the +1 position (p = 0.011). […] Thus, our conclusion that the presence of these aromatic residues in the +1 position relative to the acetyllysine is a major factor promoting KDAC6 activity has predictive utility and provides some understanding of the underlying mechanistic basis.

In assay [2] the target is T2, Full-length human KDAC8 (Homo sapiens, UniProt Q9BY41).
T2 construct: Full-length human KDAC8 (UniProtKB Q9BY41) was recombinantly expressed fused to a C-terminal His6 tag; TEV protease cleavage site (C); His6 (C); made in house; host or cells: Escherichia coli
T2 sequence (Q9BY41 1-377): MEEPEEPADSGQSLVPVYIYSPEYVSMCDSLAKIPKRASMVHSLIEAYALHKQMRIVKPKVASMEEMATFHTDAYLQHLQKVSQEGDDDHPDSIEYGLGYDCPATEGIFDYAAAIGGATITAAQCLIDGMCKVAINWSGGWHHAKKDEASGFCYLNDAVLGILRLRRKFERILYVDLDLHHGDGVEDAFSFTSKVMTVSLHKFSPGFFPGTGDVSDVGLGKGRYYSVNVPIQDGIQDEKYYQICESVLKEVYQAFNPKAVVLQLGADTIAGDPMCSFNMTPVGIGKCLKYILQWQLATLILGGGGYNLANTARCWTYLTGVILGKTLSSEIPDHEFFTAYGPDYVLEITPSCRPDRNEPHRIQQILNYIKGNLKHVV
Put plainly: Activity of KDAC8 with putative substrate peptides (verification of substrate preferences). It counts as biochemical. The conditions noted are these: endpoint, 100 μM peptide, buffer also containing 100 mM KCl; for specific activity, KDAC8 with putative substrates: 50–200 nM KDAC, 25 °C, pH 7.6, 15–60 min, average ± SD, SD; for specific activity, KDAC8 with putative substrates (no activity above limit): limit of reliable detection 0.0004 s^–1. Here is the method: as §1
We performed a similar experiment for KDAC8, this time using substrates that have been described as potential KDAC8 substrates from cell-based studies or which contained residues in the +1 and/or +2 positions that were identified to enhance activity of KDAC8. […] In addition, we also considered phenylalanine, as we did for KDAC6. Here, we looked at the correlation between peptides having any of these features and activity. While the result was less striking than for KDAC6, there was still a positive correlation between the presence of the identified residues and activity (Table 3; p = 0.048). Although we have identified only a portion of the interactions that likely contribute to substrate selectivity for these enzymes, these interactions correlate with a statistically significant increase in activity with peptides from potential biological substrates in an unbiased background of residues in other positions.

The text below walks through data of publication PMC10157890, “Lysine Deacetylase Substrate Selectivity: Distinct Interaction Surfaces Drive Positive and Negative Selection for Residues Following Acetyllysine” (Biochemistry, 2023).

On to AFGK^acYCR, for which, in assay [1], the “specific activity, KDAC6 with putative substrates” value was determined as 0.20 ± 0.09 s^–1. In addition, in assay [2], the “specific activity, KDAC8 with putative substrates” value worked out at 0.0029 ± 0.0004 s^–1.
For “GRAK^acYWL [acetyllysine peptide from E3 SUMO-protein ligase RanBP2 (P49792)]”, the “specific activity, KDAC6 with putative substrates” value in assay [1] is listed as 0.100 ± 0.009 s^–1. Moreover, the “specific activity, KDAC8 with putative substrates” value in assay [2] was 0.007 ± 0.003 s^–1.
In the case of “GTAK^acSVT [acetyllysine peptide from cellular tumor antigen p53 (P04637)]”, the “specific activity, KDAC6 with putative substrates (no activity above limit)” value in assay [1] (limit of reliable detection 0.0013 s^–1) is “– (– indicates no activity above the limit of reliable detection (0.0013 s^–1))”. Also, the “specific activity, KDAC8 with putative substrates (no activity above limit)” value in assay [2] was “– (– indicates no activity above the limit of reliable detection (0.0004 s^–1))”.
In the case of “GVGK^acYIN [acetyllysine peptide from RING-type E3 ubiquitin-protein ligase PPIL2 (Q13356)]”, the “specific activity, KDAC6 with putative substrates” value in assay [1] stood at 0.055 ± 0.024 s^–1. The “specific activity, KDAC8 with putative substrates (no activity above limit)” value in assay [2] was “– (– indicates no activity above the limit of reliable detection (0.0004 s^–1))”.
On to “LSGK^acEIN [acetyllysine peptide from serine/arginine-rich splicing factor 5 (Q13243)]”, for which the “specific activity, KDAC6 with putative substrates” value in assay [1] is on record as 0.024 ± 0.005 s^–1. Further, the “specific activity, KDAC8 with putative substrates (no activity above limit)” value in assay [2] was “– (– indicates no activity above the limit of reliable detection (0.0004 s^–1))”.
With “QLSK^acWP [acetyllysine peptide from forkhead box protein O3 (O43524)]”, the “specific activity, KDAC6 with putative substrates” value in assay [1] came out at 0.14 ± 0.03 s^–1. For the same substance, in assay [2], the “specific activity, KDAC8 with putative substrates” value came out at 0.020 ± 0.006 s^–1.
As to “SDMK^acHWP [acetyllysine peptide from heat shock 70 kDa protein 1A/1B (P0DMV8/P0DMV9)]”, the “specific activity, KDAC6 with putative substrates” value in assay [1] was 0.013 ± 0.009 s^–1. Besides, the “specific activity, KDAC8 with putative substrates (no activity above limit)” value in assay [2] is “– (– indicates no activity above the limit of reliable detection (0.0004 s^–1))”.
Taken in the same sequence, the figures for “SHLK^acAHL [acetyllysine peptide from transcription factor Sp7 (Q8TDD2)]” were 0.024 ± 0.013 s^–1 and “– (– indicates no activity above the limit of reliable detection (0.0004 s^–1))”.
“TGNK^acYVP [acetyllysine peptide from tubulin β-3 chain (Q13509)]”: the “specific activity, KDAC6 with putative substrates” value in assay [1] was 0.10 ± 0.04 s^–1. The “specific activity, KDAC8 with putative substrates” value in assay [2] is on record as 0.0011 ± 0.0006 s^–1.
